Where two headings read alike, the source gives them in different places.
What was measured:
Format in all cases: cell-based
PPAR Gamma = molecular target: T1, PPAR Gamma (Homo sapiens, UniProt P37231); assay: PathHunter NHR protein interaction / nuclear translocation agonist test, PPAR Gamma; conditions: for Emax: read-out: PPAR Gamma Maximum Activation Response %
T1 sequence (P37231 1-505): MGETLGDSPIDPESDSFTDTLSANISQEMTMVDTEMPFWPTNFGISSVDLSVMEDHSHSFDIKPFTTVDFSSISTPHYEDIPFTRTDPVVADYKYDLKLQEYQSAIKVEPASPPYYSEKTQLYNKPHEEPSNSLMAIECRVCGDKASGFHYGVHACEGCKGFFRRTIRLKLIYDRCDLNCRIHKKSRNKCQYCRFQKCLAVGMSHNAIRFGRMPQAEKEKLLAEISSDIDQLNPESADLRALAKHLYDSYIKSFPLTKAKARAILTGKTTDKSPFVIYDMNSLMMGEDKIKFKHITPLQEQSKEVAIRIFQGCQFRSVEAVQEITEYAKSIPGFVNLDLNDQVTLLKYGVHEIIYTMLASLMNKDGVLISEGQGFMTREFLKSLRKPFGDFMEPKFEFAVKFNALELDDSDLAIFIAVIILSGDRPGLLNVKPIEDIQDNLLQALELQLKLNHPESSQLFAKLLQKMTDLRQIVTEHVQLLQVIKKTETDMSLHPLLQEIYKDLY

PPAR Delta = molecular target: T2, PPAR Delta (Homo sapiens, UniProt Q03181); assay: PathHunter NHR protein interaction / nuclear translocation agonist test, PPAR Delta; conditions: for Emax: read-out: PPAR Delta Maximum Activation Response %
T2 sequence (Q03181 1-441): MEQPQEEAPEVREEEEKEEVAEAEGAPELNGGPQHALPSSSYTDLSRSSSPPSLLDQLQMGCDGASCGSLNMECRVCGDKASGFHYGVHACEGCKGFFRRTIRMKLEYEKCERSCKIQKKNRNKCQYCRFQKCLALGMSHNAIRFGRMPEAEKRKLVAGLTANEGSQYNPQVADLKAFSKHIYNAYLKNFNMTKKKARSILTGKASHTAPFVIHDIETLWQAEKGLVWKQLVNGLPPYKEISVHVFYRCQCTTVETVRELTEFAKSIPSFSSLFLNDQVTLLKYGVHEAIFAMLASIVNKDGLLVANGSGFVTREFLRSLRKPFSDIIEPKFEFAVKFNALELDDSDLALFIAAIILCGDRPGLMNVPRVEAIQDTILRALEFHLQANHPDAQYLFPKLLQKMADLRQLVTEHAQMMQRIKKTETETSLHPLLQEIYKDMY

PPAR Alpha = molecular target: T3, PPAR Alpha (Homo sapiens, UniProt Q07869); assay: PathHunter NHR protein interaction / nuclear translocation agonist test, PPAR Alpha; conditions: for Emax: read-out: PPAR Alpha Maximum Activation Response %
T3 sequence (Q07869 1-468): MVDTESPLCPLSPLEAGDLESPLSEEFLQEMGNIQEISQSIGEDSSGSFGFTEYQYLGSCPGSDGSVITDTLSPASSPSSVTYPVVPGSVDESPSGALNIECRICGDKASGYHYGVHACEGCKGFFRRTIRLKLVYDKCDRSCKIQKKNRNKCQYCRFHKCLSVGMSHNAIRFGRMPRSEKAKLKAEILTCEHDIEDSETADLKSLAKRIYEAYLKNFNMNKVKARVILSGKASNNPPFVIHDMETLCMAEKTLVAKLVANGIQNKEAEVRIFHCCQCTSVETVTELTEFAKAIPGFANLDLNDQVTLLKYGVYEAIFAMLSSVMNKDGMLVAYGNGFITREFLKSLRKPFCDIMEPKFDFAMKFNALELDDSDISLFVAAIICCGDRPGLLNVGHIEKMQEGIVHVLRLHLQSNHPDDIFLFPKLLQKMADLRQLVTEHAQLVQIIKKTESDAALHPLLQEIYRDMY

[1] = agonist mode, read-out: PPAR Gamma EC50
[2] = agonist mode, read-out: PPAR Delta EC50
[3] = agonist mode, read-out: PPAR Alpha EC50
[4] = relative to known PPARγ agonist Troglitazone = 100%
[5] = relative to known PPARδ agonist L-165,041 = 100%

Row | EC50 (PPAR Alpha; [3]) [nM] | Emax (PPAR Alpha) [%] | Emax (PPAR Gamma; [4]) [%] | Emax (PPAR Delta; [5]) [%] | SMILES | EC50 (PPAR Gamma; [1]) [nM] | Emax (PPAR Gamma) [%] | EC50 (PPAR Delta; [2]) [nM] | Emax (PPAR Delta) [%] | EC50 (PPAR Gamma; PPAR Gamma EC50 nM) [nM] | EC50 (PPAR Alpha; PPAR Alpha EC50 nM) [nM] | PPAR Alpha Maximum Activation Response % (PPAR Alpha) | EC50 (PPAR Delta; PPAR Delta EC50 nM) [nM] | PPAR Delta Maximum Activation Response % (PPAR Delta)
1 |  |  |  |  | CSc1ccc(C(=O)C2CN(C(=O)Oc3ccccc3)CC2Cc2cc(C)c(OC(C)(C)C(=O)O)c(C)c2)cc1 (stereo not shown) [Compound 26] |  |  | < 100 | 50 to 80 | > 250 | < 100 |  |  | 
2 | 150 to 200 | 80 to 100 | 80 to 100 | 80 to 100 | CSc1ccc(C(=O)C2CN(C(=O)Oc3ccccc3)CC2Cc2ccc(OC(C)(C)C(=O)O)c(C)c2)cc1 (single isomer, unassigned) [Compound 77] | > 250 |  | 150 to 200 |  |  |  |  |  | 
3 | < 100 | 80 to 100 | 80 to 100 | 80 to 100 | Cc1cc(CCC2CN(C(=O)Oc3ccccc3)CC2C(=O)c2ccc(Cl)s2)cc(C)c1OC(C)(C)C(=O)O (single isomer, unassigned) [Compound 47] | 150 to 200 |  | < 100 |  |  |  |  |  | 
4 | < 100 | 80 to 100 | 80 to 100 | 80 to 100 | CSc1ccc(C(=O)C2CN(C(=O)Oc3ccccc3)CC2CCc2ccc(OC(C)(C)C(=O)O)c(C)c2)cc1 (single isomer, unassigned) [Compound 81] | 200 to 250 |  | 100 to 150 |  |  |  |  |  | 
5 | > 250 | 80 to 100 |  |  | CSc1ccc(C(=O)/C=C/c2cc(C)c(OC(C)(C)C(=O)O)c(C)c2)cc1 [GFT-505, Elafibranor, reference compound] | > 250 | 50 to 80 |  | 50 to 80 |  |  |  |  | 
6 | < 100 | 80 to 100 | 80 to 100 | 80 to 100 | Cc1cc(CC2CN(C(=O)Oc3ccccc3)CC2C(=O)c2ccc(Cl)cc2)cc(C)c1OC(C)(C)C(=O)O (single isomer, unassigned) [Compound 70] | 150 to 200 |  | < 100 |  |  |  |  |  | 
7 | < 100 | 80 to 100 | 80 to 100 | 80 to 100 | CSc1ccc(C(=O)[C@H]2CN(C(=O)OC3CCC(C)CC3)C[C@@H]2Cc2cc(C)c(OC(C)(C)C(=O)O)c(C)c2)cc1 (mixture of isomers) [Compound 54] | 200 to 250 |  | 100 to 150 |  |  |  |  |  | 
8 | < 100 | 80 to 100 |  | 80 to 100 | CSc1ccc(C(=O)[C@@H]2CN(C(=O)Oc3ccc(Cl)c(Cl)c3)C[C@H]2c2cc(C)c(OC(C)(C)C(=O)O)c(C)c2)cc1 (single isomer, unassigned) [Compound 43] |  |  | < 100 |  |  |  |  |  | 
9 | > 250 | 80 to 100 |  | 80 to 100 | CSc1ccc(C(=O)[C@@H]2CN(S(C)(=O)=O)C[C@H]2CCc2cc(C)c(OC(C)(C)C(=O)O)c(C)c2)cc1 (single isomer, unassigned) [Compound 75] |  |  | 200 to 250 |  |  |  |  |  | 
10 | 200 to 250 | 80 to 100 |  | 50 to 80 | CSc1ccc(C(=O)C2CN(S(N)(=O)=O)CC2c2cc(C)c(OC(C)(C)C(=O)O)c(C)c2)cc1 (single isomer, unassigned) [Compound 19] |  |  | > 250 |  |  |  |  |  | 
11 | < 100 | 80 to 100 |  | 80 to 100 | CSc1ccc(C(=O)[C@@H]2CN(C(=O)Oc3ccc(Cl)cc3F)C[C@H]2c2cc(C)c(OC(C)(C)C(=O)O)c(C)c2)cc1 (single isomer, unassigned) [Compound 42] |  |  | < 100 |  |  |  |  |  | 
12 | < 100 | 80 to 100 |  | 50 to 80 | CSc1ccc(C(=O)[C@H]2CN(C(=O)Cc3ccc(Cl)cc3)C[C@@H]2c2cc(C)c(OC(C)(C)C(=O)O)c(C)c2)cc1 (racemic) [Compound 36] |  |  | > 250 |  |  |  |  |  | 

Row | SMILES | EC50 (PPAR Alpha; [3]) [nM] | Emax (PPAR Alpha) [%] | Emax (PPAR Gamma; [4]) [%] | Emax (PPAR Delta; [5]) [%] | EC50 (PPAR Gamma; [1]) [nM] | Emax (PPAR Gamma) [%] | EC50 (PPAR Delta; [2]) [nM] | Emax (PPAR Delta) [%] | EC50 (PPAR Gamma; PPAR Gamma EC50 nM) [nM] | EC50 (PPAR Alpha; PPAR Alpha EC50 nM) [nM] | PPAR Alpha Maximum Activation Response % (PPAR Alpha) | EC50 (PPAR Delta; PPAR Delta EC50 nM) [nM] | PPAR Delta Maximum Activation Response % (PPAR Delta)
13 | CSc1ccc(C(=O)[C@H]2CNC[C@@H]2CCc2cc(C)c(OC(C)(C)C(=O)O)c(C)c2)cc1 (racemic) [Compound 56] | > 250 | < 50 |  |  | > 250 | < 50 | 200 to 250 | 50 to 80 |  |  |  |  | 
14 | COC(=O)N1C[C@@H](C(=O)c2ccc(SC)cc2)[C@H](c2cc(C)c(OC(C)(C)C(=O)O)c(C)c2)C1 (single isomer, unassigned) [Compound 5] | > 250 |  |  |  | > 250 | < 50 | 100 to 150 | 50 to 80 |  |  | I (key: 100% ≥ I ≥ 80%; 80% ≥ II ≥ 50%; III < 50%) |  | 
15 | CSc1ccc(C(=O)C2CN(C(=O)Oc3ccc(Cl)cc3)CC2c2cc(C)c(OC(C)(C)C(=O)O)c(C)c2)cc1 (single isomer, unassigned) [Compound 14] | < 100 |  |  |  | > 250 |  | < 100 |  |  |  |  |  | 
16 | CSc1ccc(C(=O)[C@H]2CN(C(=O)Oc3ccc(C)nc3)C[C@@H]2Cc2cc(C)c(OC(C)(C)C(=O)O)c(C)c2)cc1 (racemic) [Compound 53] |  | 80 to 100 |  |  |  | 80 to 100 |  | 50 to 80 | > 250 | 100 to 150 |  | 100 to 150 | 
17 | Cc1cc(CC[C@H]2CN(C(=O)Oc3ccccc3)C[C@@H]2C(=O)c2ccc([S+](C)[O-])cc2)cc(C)c1OC(C)(C)C(=O)O (mixture of isomers) [Compound 67] |  | 80 to 100 | 80 to 100 |  | > 250 |  | > 250 | 80 to 100 |  |  |  |  | 
18 | Cc1cc(CCC2CN(C(=O)Oc3ccccc3)CC2C(=O)c2ccc(Cl)cc2)cc(C)c1OC(C)(C)C(=O)O (single isomer, unassigned) [Compound 65] | < 100 |  |  |  | 200 to 250 |  | < 100 | 80 to 100 |  |  |  |  | 
19 | CSc1ccc(C(=O)[C@H]2CN(C)C[C@@H]2CCc2cc(C)c(OC(C)(C)C(=O)O)c(C)c2)cc1 (racemic) [Compound 55] |  | < 50 |  |  |  | < 50 |  | 50 to 80 | > 250 | > 250 |  | 200 to 250 | 
20 | CSc1ccc(C(=O)C2CN(C(=O)OC(C)C)CC2CCc2cc(C)c(OC(C)(C)C(=O)O)c(C)c2)cc1 (single isomer, unassigned) [Compound 58] | 100 to 150 | 80 to 100 |  |  | 200 to 250 | 50 to 80 | < 100 | 50 to 80 |  |  |  |  | 
21 | Cc1cc(CCC2CN(C(=O)Oc3ccccc3)CC2C(=O)c2ccc(Cl)cc2)cc(C)c1OC(C)(C)C(=O)O (single isomer, unassigned) [Compound 66] | < 100 |  |  |  | 150 to 200 |  | < 100 |  |  |  |  |  | I (key: 100% ≥ I ≥ 80%; 80% ≥ II ≥ 50%; III < 50%)
22 | CSc1ccc(C(=O)C2CN(C(=O)Oc3ccc(Cl)cc3)CC2c2cc(C)c(OC(C)(C)C(=O)O)c(C)c2)cc1 (single isomer, unassigned) [Compound 13] | < 100 | 50 to 80 |  |  | > 250 | 80 to 100 | < 100 | 50 to 80 |  |  |  |  | 
23 | CSc1ccc(C(=O)C2CN(C(C)=O)CC2c2cc(C)c(OC(C)(C)C(=O)O)c(C)c2)cc1 (single isomer, unassigned) [Compound 21] | > 250 | 80 to 100 |  |  |  |  | > 250 | 50 to 80 |  |  |  |  | 
24 | CSc1ccc(C(=O)[C@H]2CN(C(=O)Oc3cnn(C)c3)C[C@@H]2Cc2cc(C)c(OC(C)(C)C(=O)O)c(C)c2)cc1 (racemic) [Compound 48] | < 100 | 50 to 80 |  |  |  |  | 100 to 150 | 50 to 80 |  |  |  |  | 
25 | CSc1ccc(C(=O)[C@H]2CN(C(=O)Oc3ccccc3)C[C@@H]2CCc2cc(C)c(OC(C)(C)C(=O)OC(C)C)c(C)c2)cc1 (single isomer, unassigned) [Compound 61] |  | < 50 |  |  |  |  |  | < 50 |  | > 250 |  | > 250 | 
26 | CSc1ccc(C(=O)C2CN(C(=O)Oc3ccccc3Cl)C[C@@H]2c2cc(C)c(OC(C)(C)C(=O)O)c(C)c2)cc1 (mixture of isomers) [Compound 12] | 150 to 200 | 80 to 100 |  |  |  |  | > 250 | 50 to 80 |  |  |  |  | 

— patent US10526320B2, “Pyrrolidine derivatives as PPAR agonists” (GUANGDONG RAYNOVENT BIOTECH CO., LTD., priority 2016, dated 2020)
